Values after ≈ are worked out from the molar mass of the structure shown.
test system: Cryptococcus neoformans (Cr. neoformans) cells (strain MTU13001); assay: In vitro antifungal activity, broth micro-dilution, turbidity at 600 nm; format: cell-based; conditions: Cryptococcus neoformans; YNBPB medium, 35° C., 24 hours, OD600; read-out: Inhibition against in vitro cell growth, Cr. neoformans (MTU13001) IC50
Method: In vitro antifungal activity of the bicyclic compounds was determined using the Cryptococcus neoformans (Cr. neoformans) cells (strain MTU13001) according to the broth micro-dilution procedure (National Committee for Clinical Laboratory Standard (1992). Document M27-P). 10^4 cells in […] of YNBPB medium (YNB (Difco), 1% (w/v) dextrose (Wako), 0.25% K2HPO4 (Wako)) containing various concentrations of compounds were dispensed in 96-well plates and incubated at 35° C. for 24 hours. The turbidity of the cell suspension was measured using a Microplate leader (WL320, Bio-Tek Instrument) at 600 nm. Antifungal activity of each compound was indicated as 50% inhibition concentration (IC50) values that was determined by calculation the minimum concentration of the compound required for the 50% reduction of the turbidity (OD600) of cells compared to untreated control cells.

Structure (SMILES)	IC50
CCOCc1cc2cc(OCc3oc4cccc(OCCCNCc5cccnc5)c4c3C)ccc2o1 [Example 42, [3-[2-(2-Ethoxymethyl-benzofuran-5-yloxymethyl)-3-methyl-benzofuran-4-yloxy]-propyl]-pyridin-3-ylmethyl-amine]	2.5 µg/mL (≈ 4.99 µM)
Cc1c(C(=O)Nc2ccc(N3CCOCC3)cc2)oc2cccc(OCCCNCc3cccnc3)c12 [Example 69, 3-Methyl-4-{3-[(pyridin-3-ylmethyl)-amino]-propoxy}-benzofuran-2-carboxylic Acid (4-morpholin-4-yl-phenyl)-amide]	57 µg/mL (≈ 114 µM)
Cc1c(COc2cccnc2)oc2cccc(OCCCNCc3cccnc3)c12 [Example 31, {3-[3-Methyl-2-(pyridin-3-yloxymethyl)-benzofuran-4-yloxy]-propyl}-pyridin-3-ylmethyl-amine]	19 µg/mL (≈ 47.1 µM)
CCOC(=O)c1oc2cccc(OCCCNCc3ccc(N(C)C)cc3)c2c1C [Example 99, 4-(3-(4-Dimethylamino-benzylamino)-propoxy)-3-methyl-benzofuran-2-carboxylic Acid Ethyl Ester]	1.9 µg/mL (≈ 4.63 µM)
Cc1c(COc2ccc(F)c(F)c2F)oc2cccc(OCCCNCc3cccnc3)c12 [Example 21, {3-[2-(2,3,4-Trifluorophenoxymethyl)-3-methyl-benzofuran-4-yloxy]-propyl}-pyridin-3-ylmethyl-amine]	5.8 µg/mL (≈ 12.7 µM)
Cc1c(COc2ccc(F)cc2F)oc2cccc(OCCCNCc3cccnc3)c12 [Example 12, {3-[2-(2,4-Difluorophenoxymethyl)-3-methyl-benzofuran-4-yloxy]-propyl}-pyridin-3-ylmethyl-amine]	4.4 µg/mL (≈ 10 µM)
CCOC(=O)c1ccc(NC(=O)c2oc3cccc(OCCCNC(C)(C)C)c3c2C)cc1 [Example 64, 4-[[4-(3-tert-Butylamino-propoxy)-3-methyl-benzofuran-2-carbonyl]-amino]-benzoic Acid Ethyl Ester]	2.1 µg/mL (≈ 4.64 µM)
CCOC(=O)c1oc2cccc(OCCCNC3CCN(Cc4ccccc4)CC3)c2c1C [Example 100, 4-(3-(1-Benzyl-piperidin-4-ylamino)-propoxy)-3-methyl-benzofuran-2-carboxylic Acid Ethyl Ester]	2.1 µg/mL (≈ 4.66 µM)
Cc1c(C(=O)NCCc2ccccc2)oc2cccc(OCCCNC3CCN(Cc4ccccc4)CC3)c12 [Example 112, 4-[3-(1-Benzyl-piperidin-4-ylamino)-propoxy]-3-methyl-benzofuran-2-carboxylic Acid Phenethyl-amide]	3.1 µg/mL (≈ 5.9 µM)
CCOCc1oc2cccc(OCCCNCc3cccnc3)c2c1C [Example 52, [3-(2-Ethoxymethyl-3-methyl-benzofuran-4-yloxy)-propyl]-pyridin-3-ylmethyl-amine]	2.6 µg/mL (≈ 7.34 µM)
Cc1c(COc2ccc(C#N)cc2)oc2cccc(OCCCNCc3cccnc3)c12 [Example 32, 4-(3-Methyl-4-{3-[(pyridin-3-ylmethyl)-amino]-propoxy}-benzofuran-2-ylmethoxy)-benzonitrile]	69 µg/mL (≈ 161 µM)
Cc1c(CSCCc2ccccc2)oc2cccc(OCCCNC(C)C)c12 [Example 55, Isopropyl-[3-(3-methyl-2-phenethylsulfanylmethyl-benzofuran-4-yloxy)-propyl]-amine]	1.8 µg/mL (≈ 4.53 µM)
Cc1c(COc2ccc3oc(C(C)(C)O)cc3c2)oc2cccc(OCCCNCc3cccnc3)c12 [Example 44-2, 2-[5-(3-methyl-4-{3-[(pyridin-3-ylmethyl)-amino]-propoxy}-benzofuran-2-ylmethoxy)-benzofuran-2-yl]-propan-2-ol]	6.1 µg/mL (≈ 12.2 µM)

same assay, conditions: YNBPB medium, 35° C., 24 hours, OD600

Structure (SMILES)	Inhibition against in vitro cell growth, Cr. neoformans (MTU13001) IC50
Cc1c(C2=NC(C(=O)N3CCN(C)CC3)C(CC3CCCCC3)O2)oc2cccc(OCCCNCc3cccnc3)c12 (racemic) [Example 88, dl-[5-Cyclohexylmethyl-2-(3-methyl-4-{3-[(pyridin-3-ylmethyl)-amino]-propoxy}-benzofuran-2-yl)-trans-4,5-dihydro-oxazol-4-yl]-(4-methyl-piperazin-1-yl)-methanone]	5.3 µg/mL

test system: not listed separately; assay: Acute toxicity (LD50) by intravenous administration in mice; conditions: mouse, in vivo
Source text: The acute toxicity (LD50) of the representative bicycle compound (Example 42) of the present invention was examined by intravenous administration in mice.

Structure (SMILES)	LD50
CCOCc1cc2cc(OCc3oc4cccc(OCCCNCc5cccnc5)c4c3C)ccc2o1 [Example 42, [3-[2-(2-Ethoxymethyl-benzofuran-5-yloxymethyl)-3-methyl-benzofuran-4-yloxy]-propyl]-pyridin-3-ylmethyl-amine]	> 50 mg/kg
